In patent publication US20200031778A1, “NOVEL 5-SUBSTITUTED IMIDAZOLYLMETHYL DERIVATIVES” (Bayer CropScience Aktiengesellschaft, priority 2016, published 2020) one finds LogP and chromatographic logP data, which are given here for 62 molecules.

A word on the chromatographic logP: it is a lipophilicity value derived from retention on a column.

Each structure is given as a SMILES string.

One data set in a line: Log P by HPLC on reversed phase columns (EEC directive 79/831 Annex V.A8; methods [a], [b], [c]).
Conditions: not given
The class given is physicochemical. As for the experimental part:
Measurement of Log P values was performed according to EEC directive 79/831 Annex V.A8 by HPLC (High Performance Liquid Chromatography) on reversed phase columns with the following methods: • ^[a] Log P value is determined by measurement of LC-UV, in an acidic range, with 0.1% formic acid in water and acetonitrile as eluent (linear gradient from 10% acetonitrile to 95% acetonitrile). • ^[b] Log P value is determined by measurement of LC-UV, in a neutral range, with 0.001 molar ammonium acetate solution in water and acetonitrile as eluent (linear gradient from 10% acetonitrile to 95% acetonitrile). • ^[c] Log P value is determined by measurement of LC-UV, in an acidic range, with 0.1% phosphoric acid and acetonitrile as eluent (linear gradient from 10% acetonitrile to 95% acetonitrile).
If more than one Log P value is available within the same method, all the values are given and separated by “+”.
Calibration was done with straight-chain alkan2-ones (with 3 to 16 carbon atoms) with known Log P values (measurement of Log P values using retention times with linear interpolation between successive alkanones). Lambda-max-values were determined using UV-spectra from 200 nm to 400 nm and the peak values of the chromatographic signals.
Take `N#Cc1cncn1CC(O)c1cnc(Oc2ccc(Br)nc2)cc1C(F)(F)F` (centres unmarked) [I-153]: the LogP was 2.41^[a]. On the same count and under the same terms, the figure for `N#Cc1cncn1CC(O)(c1ccc(C2CC2C2CC2)cc1Cl)C1(F)CC1` (centres unmarked) [I-388] is 3.60^[a]; for `N#Cc1cncn1CC(O)(c1cc(Cl)c(F)cc1F)C1(F)CC1` (centres unmarked) [I-577] it is 2.42^[a]; for `C/C=C(\C)C(O)(Cn1cncc1C#N)c1ccc(F)cc1F` (centres unmarked) [I-396] it is 2.41^[a]. Still for that read-out and setting: the result for `N#Cc1cncn1CC(O)(c1ccc(F)cc1Br)C1CC1` (centres unmarked) [I-398] reads 2.46^[a]. Turning to `CC(C)(C)C(O)(Cn1cncc1C#N)c1ccc(F)c(F)c1` (centres unmarked) [I-483], the LogP is 2.66^[a]. The same measure, in the same setting: the result for `N#Cc1cncn1CC(O)(c1cc(F)cc(F)c1F)C1(F)CC1` (centres unmarked) [I-588] reads 2.18^[a]; that for `CCOC(Cn1cncc1F)c1cnc(Oc2ccc(Cl)cc2)cc1C(F)(F)F` (centres unmarked) [I-132], 3.15^[a]. With `N#Cc1cncn1CC(O)(c1cc(F)c(Cl)c(F)c1)C1(F)CC1` (centres unmarked) [I-475], the LogP was 2.54^[a]. Regarding `CC(=O)c1cncn1CC(C)(O)c1cnc(Oc2ccc(Cl)cc2)cc1C(F)(F)F` (centres unmarked) [I-250], the LogP is 2.78^[a].

For `N#Cc1cncn1CC(O)(CCCC1CCCCC1)C1CC1` (centres unmarked) [I-661], the LogP is 3.83^[a]. For `N#Cc1cncn1CC(O)(c1ccc(C(F)(F)F)cc1Br)C1(F)CC1` (centres unmarked) [I-435], the LogP was 2.78^[a]. On to `N#Cc1cncn1CC(O)(c1cc(Cl)cc(Cl)c1)C1(F)CC1` (centres unmarked) [I-472], for which the LogP was 2.67^[a].

For `N#Cc1cncn1CC(O)(CC1CC1)c1cc(Cl)cc(Br)c1` (centres unmarked) [I-531], the LogP is 2.93^[a]. On the same count and under the same terms, the figure for `N#Cc1cncn1CC(O)(c1cc(Br)ccc1F)C1(Cl)CC1` (centres unmarked) [I-632] is 2.49^[a]; for `CC(O)(Cn1cncc1C#N)c1ccc(Oc2ccc(I)cc2)cc1Cl` (centres unmarked) [I-202] it is 3.73^[a]. For the molecule `OC(Cn1cncc1F)(c1ccc(Cl)cc1F)C1(F)CC1` (centres unmarked) [I-437], the LogP was 1.57^[a]. Take `N#Cc1cncn1CC(O)(c1ccc(C#CC2CCCC2)cc1F)C1(Cl)CC1` (centres unmarked) [I-649]: the LogP was 3.99^[a]. For the molecule `CC(C)C(O)(Cn1cncc1C#N)c1ccc(Br)cc1Cl` (centres unmarked) [I-422], the LogP is 3.02^[a]. Take `N#Cc1cncn1CC(O)(c1ccc(F)cc1Cl)C1(Cl)CC1` (centres unmarked) [I-236]: the LogP is 2.35^[a]. On to `N#Cc1cncn1CC(O)c1ccc(Oc2ccc(I)cc2)cc1Cl` (centres unmarked) [I-95], for which the LogP is 3.44^[a]. The same measure, in the same setting: the figure for `N#Cc1cncn1CC(O)(c1ccc(F)cc1)C1(F)CC1` (centres unmarked) [I-351] is 2.04^[a]. The same measure, in the same setting: the figure for `N#Cc1cncn1CC(O)c1ccc(Oc2ccc(Cl)cn2)cc1Cl` (centres unmarked) [I-69] is 2.54 ^[a]; for `CC(O)(Cn1cncc1Br)c1ccc(Oc2ccc(Cl)cc2)cc1C(F)(F)F` (centres unmarked) [I-193] it is 2.76^[a]; for `CC(O)(Cn1cncc1Cl)c1ccc(Oc2ccc(C(F)(F)F)cc2)cc1Cl` (centres unmarked) [I-159] it is 3.02^[a]. `N#Cc1cncn1CC(O)c1ccc(Oc2ccc(C(F)(F)F)cc2)cc1C(F)(F)F` (centres unmarked) [I-53]: the LogP is 3.52^[a]. In the case of `CC(C)(C)C(O)(Cn1cncc1C#N)c1ccc(Cl)cc1Cl` (centres unmarked) [I-310], the LogP was 3.37^[a]. For the molecule `OC(Cn1cncc1Cl)c1ccc(Oc2ccc(Br)cc2)cc1Br` (centres unmarked) [I-45], the LogP was 2.71^[a].

Consider `CC(=O)OC(Cn1cncc1F)c1ccc(Oc2ccc(Cl)cc2)cc1C(F)(F)F` (centres unmarked) [I-104], for which the LogP is 3.18^[a]. Same read-out and setting: the figure for `CC1(C(O)(Cn2cncc2C#N)c2ccc(F)cc2)CC1` (centres unmarked) [I-450] is 2.19^[a]; for `N#Cc1cncn1CC(O)c1cnc(Oc2ccc(C(F)(F)F)nc2)cc1C(F)(F)F` (centres unmarked) [I-118] it is 2.46^[a].

`OC(Cn1cncc1Br)c1ccc(Oc2ccc(I)cc2)cc1Br` (centres unmarked) [I-109]: the LogP is 2.78^[a]. As for `N#Cc1cncn1CC(O)(c1cc(Cl)c(F)c(Cl)c1)C1(F)CC1` (centres unmarked) [I-477], the LogP is 2.74^[a]. Still for that read-out and setting: the result for `N#Cc1cncn1CC(O)(c1ccc(Cl)nc1F)C1(F)CC1` (centres unmarked) [I-552] reads 1.96^[a]; that for `N#Cc1cncn1CC(O)(c1cc(F)ccc1Cl)C1(Cl)CC1` (centres unmarked) [I-338], 2.30^[a]. Regarding `COC(Cn1cncc1C#N)c1ccc(Oc2ccc(Cl)cc2)cc1F` (centres unmarked) [I-60], the LogP is 3.65^[a].

Consider `N#Cc1cncn1CC(O)(C#CC1CCCCC1)C1(F)CC1` (centres unmarked) [I-543], for which the LogP was 2.64^[a]. On the same count and under the same terms, the figure for `N#Cc1cncn1CC(O)c1ccc(Oc2ccc(I)cc2)cc1F` (centres unmarked) [I-49] is 3.24^[a]; for `N#Cc1cncn1CC(O)(c1cccc(F)c1Cl)C1(Cl)CC1` (centres unmarked) [I-557] it is 2.25^[a]; for `N#Cc1cncn1CC(O)(c1ccccc1C(F)(F)F)C1CC1` (centres unmarked) [I-330] it is 2.35^[a]. Same read-out and setting: the result for `CC(O)(Cn1cncc1C#N)c1ccc(Oc2ccc(I)cc2)cc1F` (centres unmarked) [I-189] reads 3.48^[a].

Consider `N#Cc1cncn1CC(O)(c1ccc(Br)cc1F)C1CC1` (centres unmarked) [I-404], for which the LogP is 2.62^[a]. On the same count and under the same terms, the figure for `O=C(Cn1cncc1F)c1ccc(Oc2ccc(S(F)(F)(F)(F)F)cc2)nc1C(F)(F)F` [IX-136] is 3.06^[a]; for `CC(O)(Cn1cncc1Cl)c1ccc(Oc2ccc(Cl)nc2)cc1Cl` (centres unmarked) [I-176] it is 2.13^[a]. Same read-out and setting: the figure for `CC(C)(C)CC(O)(Cn1cncc1C#N)c1ccc2occc2c1` (centres unmarked) [I-369] is 2.88^[a]. On the same count and under the same terms, the figure for `O=C(Cn1cncc1F)c1ccc(Oc2ccc(C(F)(F)F)nc2)nc1C(F)(F)F` [IX-130] is 2.16^[a]; for `CCCC(O)(Cn1cncc1C#N)c1ccc(Cl)cc1Br` (centres unmarked) [I-409] it is 3.13^[a]. For `CC(C)(C)C(O)(Cn1cncc1C#N)c1cc(F)c(Cl)c(F)c1` (centres unmarked) [I-491], the LogP is 3.01^[a]. Still for that read-out and setting: the result for `N#Cc1cncn1CC(O)(c1cc(Br)cc(Br)c1)C1(F)CC1` (centres unmarked) [I-469] reads 2.82^[a]; that for `OC(Cn1cncc1Br)c1ccc(Oc2ccc(Cl)cc2)cc1Br` (centres unmarked) [I-24], 2.68^[a]; that for `OC(Cn1cncc1F)c1cnc(Oc2ccc(Cl)cc2)cc1C(F)(F)F` (centres unmarked) [I-119], 2.23^[a].

As to `N#Cc1cncn1CC(O)(c1cc(Cl)c(Cl)cc1F)C1(Cl)CC1` (centres unmarked) [I-621], the LogP is 2.80^[a]. On to `CC(O)(Cn1cncc1Cl)c1ccc(Oc2ccc(OC(F)(F)F)cc2)c(Br)c1` (centres unmarked) [I-157], for which the LogP is 2.90^[a]. On the same count and under the same terms, the figure for `N#Cc1cncn1CC(O)(CC1CCCCC1)c1ccc(F)cc1Br` (centres unmarked) [I-465] is 3.78^[a]. The same measure, in the same setting: the result for `N#Cc1cncn1CC(O)(CCC1CCCCC1)C1(F)CC1` (centres unmarked) [I-662] reads 3.19^[a].

`CC(C)(C)C(O)(C=CCC1CCCCC1)Cn1cncc1C#N` (centres unmarked) [I-673]: the LogP was 4.05^[a]. For the molecule `N#Cc1cncn1CC(O)(C#CCC1CCCCC1)CC1CC1` (centres unmarked) [I-428], the LogP was 3.29^[a]. Same read-out and setting: the result for `N#Cc1cncn1CC(O)(c1cnc(Br)cc1Cl)C1(F)CC1` (centres unmarked) [I-686] reads 1.97^[a]; that for `COc1ccc(C#CC(O)(Cn2cncc2C#N)C2(Cl)CC2)cc1` (centres unmarked) [I-321], 2.51^[a].

The same data set, now with this note: reversed phase HPLC column; method [a]: LC-UV, acidic range, 0.1% formic acid in water and acetonitrile as eluent (linear gradient from 10% to 95% acetonitrile).
With `CC(=O)c1cncn1CC(=O)c1cnc(Oc2ccc(Cl)cc2F)cc1C(F)(F)F` [IX-102], the chromatographic logP amounted to 3.21.

Consider `O=C(Cn1cncc1Cl)c1ccc(Oc2ccc(OC(F)(F)F)cc2)c(Br)c1` [IX-10], for which the chromatographic logP was 3.41.

`N#Cc1cncn1CC(=O)c1ccccc1` [IX-101] registered a chromatographic logP of 1.55.
